Read-outs that look alike come from different tables or passages of the source.
How the values were obtained:
[1] = system: SK-MEL-28; experiment: Inhibition of cells growth by colorimetric (SRB) assay, SK-MEL-28; details: for GI50 / CC50: Homo sapiens, SK-MEL-28, 48 h; for GI50: read-out: GI50 MEL-28, SRB assay, 48 hours exposure; for CC50: read-out: LC50 MEL-28, SRB assay, 48 hours exposure; for TGI MEL-28: SRB assay, 48 hours exposure
Summary of the method: (§1)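 Read-out is sulforhodamine B protein stain (OD 490 nm) after cold TCA fixation, following 48 h continuous exposure to samples spanning 10 to 10^−8 μg/ml.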

[2] = system: K-562; experiment: Inhibition of cells growth by colorimetric (SRB) assay, K-562
Summary of the method: as §1

[3] = system: LoVo; experiment: Inhibition of cells growth by colorimetric (SRB) assay, LoVo; details: for GI50 / CC50: Homo sapiens, LoVo, 48 h; for GI50: read-out: GI50 LOVO, SRB assay, 48 hours exposure; for CC50: read-out: LC50 LOVO, SRB assay, 48 hours exposure; for TGI LOVO: SRB assay, 48 hours exposure
Summary of the method: as §1

[4] = system: LoVo-Dox; experiment: Inhibition of cells growth by colorimetric (SRB) assay, LoVo-Dox; details: for GI50 / CC50: Homo sapiens, 48 h; for GI50: read-out: GI50 LOVO-DOX, SRB assay, 48 hours exposure; for CC50: read-out: LC50 LOVO-DOX, SRB assay, 48 hours exposure; for TGI LOVO-DOX: SRB assay, 48 hours exposure
Summary of the method: as §1

[5] = system: DU-145; experiment: Inhibition of cells growth by colorimetric (SRB) assay, DU-145; details: for GI50: read-out: GI50 DU-145, SRB assay, 48 hours exposure
Summary of the method: as §1

[6] = system: IGROV-ET; experiment: Inhibition of cells growth by colorimetric (SRB) assay, IGROV-ET; details: for CC50: read-out: LC50 IGROV-ET, SRB assay, 48 hours exposure
Summary of the method: as §1

[7] = system: A-549; experiment: Inhibition of cells growth by colorimetric (SRB) assay, A-549
Summary of the method: as §1

[8] = Inhibition of cells growth by colorimetric (SRB) assay, HMEC1; details: human, HMEC1 cells, LC50 H-MEC-1, SRB assay, 48 hours exposure
[9] = system: HMEC1; experiment: as above; details: for TGI H-MEC-1: in M (unit assumed)
[10] = system: LNCaP; experiment: Inhibition of cells growth by colorimetric (SRB) assay, LNCaP
Summary of the method: as §1

[11] = system: SK-OV-3; experiment: Inhibition of cells growth by colorimetric (SRB) assay, SK-OV-3; details: for CC50: read-out: LC50 SKOV-3, SRB assay, 48 hours exposure
Summary of the method: as §1

[12] = system: IGROV-1; experiment: Inhibition of cells growth by colorimetric (SRB) assay, IGROV-1
Summary of the method: as §1

[13] = system: SK-BR-3; experiment: Inhibition of cells growth by colorimetric (SRB) assay, SK-BR-3; details: for GI50: read-out: GI50 SK-BR-3, SRB assay, 48 hours exposure
Summary of the method: as §1

[14] = system: HT-29; experiment: Inhibition of cells growth by colorimetric (SRB) assay, HT-29; details: for GI50 / CC50: Homo sapiens, HT-29, 48 h; for GI50: read-out: GI50 HT-29, SRB assay, 48 hours exposure; for CC50: read-out: LC50 HT-29, SRB assay, 48 hours exposure; for TGI HT-29: SRB assay, 48 hours exposure
Summary of the method: as §1

[15] = system: PANC-1; experiment: Inhibition of cells growth by colorimetric (SRB) assay, PANC-1; details: for GI50 / CC50: Homo sapiens, PANC-1, 48 h; for GI50: read-out: GI50 PANC-1, SRB assay, 48 hours exposure; for CC50: read-out: LC50 PANC-1, SRB assay, 48 hours exposure; for TGI PANC-1: SRB assay, 48 hours exposure
Summary of the method: as §1

Nc1nccc2c(-c3cccs3)c3cccnc3n12 [Compound 65]
GI50 [1]: ≥ 37.5 µM
CC50 [1]: ≥ 37.5 µM
TGI MEL-28 [1]: 3.75E−05
GI50 ([2]; Homo sapiens, K562, 48 h, read-out: GI50 K-562, SRB assay, 48 hours exposure): ≥ 37.5 µM
CC50 ([2]; Homo sapiens, K562, 48 h, read-out: LC50 K-562, SRB assay, 48 hours exposure): ≥ 37.5 µM
TGI K-562 ([2]; SRB assay, 48 hours exposure): 3.75E−05
GI50 [3]: ≥ 37.5 µM
CC50 [3]: ≥ 37.5 µM
TGI LOVO [3]: 3.75E−05
GI50 [4]: ≥ 37.5 µM
CC50 [4]: ≥ 37.5 µM
TGI LOVO-DOX [4]: 3.75E−05
GI50 ([5]; Homo sapiens, DU-145, 48 h): ≥ 37.5 µM
CC50 ([5]; Homo sapiens, DU-145, 48 h, read-out: LC50 DU-145, SRB assay, 48 hours exposure): ≥ 37.5 µM
TGI DU-145 ([5]; SRB assay, 48 hours exposure): 3.75E−05
GI50 ([6]; Homo sapiens, 48 h, read-out: GI50 IGROV-ET, SRB assay, 48 hours exposure): ≥ 37.5 µM
CC50 ([6]; Homo sapiens, 48 h): ≥ 37.5 µM
TGI IGROV-ET ([6]; SRB assay, 48 hours exposure): 3.75E−05
GI50 ([7]; Homo sapiens, A549, 48 h, read-out: GI50 A-549, SRB assay, 48 hours exposure): 26.4 µM
CC50 ([7]; Homo sapiens, A549, 48 h, read-out: LC50 A-549, SRB assay, 48 hours exposure): ≥ 37.5 µM
TGI A-549 ([7]; SRB assay, 48 hours exposure): 3.75E−05
CC50 at 48 h [8]: ≥ 37.5 µM
GI50 ([9]; Homo sapiens, HMEC-1, 48 h, read-out: GI50 H-MEC-1, SRB assay, 48 hours exposure): 11.8 µM
TGI H-MEC-1 ([9]; SRB assay, 48 hours exposure): 3.75E−05
GI50 ([10]; Homo sapiens, LNCaP, 48 h, read-out: GI50 LN-caP, SRB assay, 48 hours exposure): 17.1 µM
CC50 ([10]; Homo sapiens, LNCaP, 48 h, read-out: LC50 LN-caP, SRB assay, 48 hours exposure): ≥ 37.5 µM
TGI LN-caP ([10]; SRB assay, 48 hours exposure): 3.75E−05
GI50 ([11]; Homo sapiens, SK-OV-3, 48 h, read-out: GI50 SKOV-3, SRB assay, 48 hours exposure): ≥ 37.5 µM
CC50 ([11]; Homo sapiens, SK-OV-3, 48 h): ≥ 37.5 µM
TGI SKOV-3 ([11]; SRB assay, 48 hours exposure): 3.75E−05
GI50 ([12]; Homo sapiens, IGROV-1, 48 h, read-out: GI50 IGROV, SRB assay, 48 hours exposure): ≥ 37.5 µM
CC50 ([12]; Homo sapiens, IGROV-1, 48 h, read-out: LC50 IGROV, SRB assay, 48 hours exposure): ≥ 37.5 µM
TGI IGROV ([12]; SRB assay, 48 hours exposure): 3.75E−05
GI50 ([13]; Homo sapiens, SK-BR-3, 48 h): 1.46 µM
CC50 ([13]; Homo sapiens, SK-BR-3, 48 h, read-out: LC50 SK-BR-3, SRB assay, 48 hours exposure): ≥ 37.5 µM
TGI SK-BR-3 ([13]; SRB assay, 48 hours exposure): 3.75E−05
GI50 [14]: ≥ 37.5 µM
CC50 [14]: ≥ 37.5 µM
TGI HT-29 [14]: 3.75E−05
GI50 [15]: ≥ 37.5 µM
CC50 [15]: ≥ 37.5 µM
TGI PANC-1 [15]: 3.75E−05

COc1nccc(-c2c3cccnc3n3c(N)nccc23)n1.Cl [Compound 81]
GI50 [1]: 0.313 µM
CC50 [1]: 1.74 µM
TGI MEL-28 [1]: 7.36E−07
TGI K-562 ([2]; SRB assay, 48 hours exposure): 3.29E−07
GI50 ([2]; read-out: GI50 K-562, SRB assay, 48 hours exposure): 0.0791 µM
CC50 ([2]; read-out: LC50 K-562, SRB assay, 48 hours exposure): 0.523 µM
GI50 [3]: 0.224 µM
CC50 [3]: ≥ 30.4 µM
TGI LOVO [3]: 1.77E−06
GI50 [4]: 0.706 µM
CC50 [4]: ≥ 30.4 µM
TGI LOVO-DOX [4]: 3.04E−06
GI50 ([5]; Homo sapiens, DU-145, 48 h): 0.928 µM
TGI DU-145 ([5]; SRB assay, 48 hours exposure): 2.40E−06
CC50 ([5]; read-out: LC50 DU-145, SRB assay, 48 hours exposure): > 30.4 µM
CC50 ([6]; Homo sapiens, 48 h): ≥ 30.4 µM
TGI IGROV-ET ([6]; SRB assay, 48 hours exposure): 2.28E−07
GI50 ([6]; read-out: GI50 IGROV-ET, SRB assay, 48 hours exposure): 0.0855 µM
TGI A-549 ([7]; SRB assay, 48 hours exposure): 3.04E−05
GI50 ([7]; read-out: GI50 A-549, SRB assay, 48 hours exposure): ≥ 30.4 µM
CC50 ([7]; read-out: LC50 A-549, SRB assay, 48 hours exposure): ≥ 30.4 µM
CC50 at 48 h [8]: 0.858 µM
TGI H-MEC-1 ([9]; SRB assay, 48 hours exposure): 2.62E−07
GI50 ([9]; read-out: GI50 H-MEC-1, SRB assay, 48 hours exposure): 0.171 µM
TGI LN-caP ([10]; SRB assay, 48 hours exposure): 2.61E−07
GI50 ([10]; read-out: GI50 LN-caP, SRB assay, 48 hours exposure): 0.158 µM
CC50 ([10]; read-out: LC50 LN-caP, SRB assay, 48 hours exposure): 2.77 µM
CC50 ([11]; Homo sapiens, SK-OV-3, 48 h): 34.5 µM
TGI SKOV-3 ([11]; SRB assay, 48 hours exposure): 8.52E−06
GI50 ([11]; read-out: GI50 SKOV-3, SRB assay, 48 hours exposure): 0.797 µM
TGI IGROV ([12]; SRB assay, 48 hours exposure): 2.70E−06
GI50 ([12]; read-out: GI50 IGROV, SRB assay, 48 hours exposure): 0.21 µM
CC50 ([12]; read-out: LC50 IGROV, SRB assay, 48 hours exposure): 20.5 µM
GI50 ([13]; Homo sapiens, SK-BR-3, 48 h): 0.855 µM
TGI SK-BR-3 ([13]; SRB assay, 48 hours exposure): 2.26E−06
CC50 ([13]; read-out: LC50 SK-BR-3, SRB assay, 48 hours exposure): 9.49 µM
GI50 [14]: 1.3 µM
CC50 [14]: ≥ 30.4 µM
TGI HT-29 [14]: 3.04E−05
GI50 [15]: 1 µM
CC50 [15]: ≥ 30.4 µM
TGI PANC-1 [15]: 2.86E−06

Source: US7772241B2, “Variolin derivatives and their use as antitumor agents” (Pharma Mar S.A., priority 2001, dated 2010)
